Reference: patent publication US20230066011A1, “PYRROLOPYRIMIDINE DERIVATIVE, AND PHARMACEUTICAL COMPOSITION FOR PREVENTING OR TREATING PROTEIN KINASE-RELATED DISEASE COMPRISING SAME AS ACTIVE INGREDIENT” (VORONOI CO., LTD., priority 2019, published 2023)

How the values were obtained:
Assay type in all cases: biochemical
human GST-DYRK1A = target: T1, human GST-DYRK1A (Homo sapiens, UniProt Q13627); experiment: GST-DYRK1A enzyme inhibition, ADP-Glo kinase assay; details: ATP 10 μM, GST-DYRK1A full length, read-out: DYRK1 IC50
T1 construct: purified human GST-DYRK1A (full length, Thermo Scientifics) enzyme; purchased Thermo Scientifics
Summary of the method: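 Full-length human GST-DYRK1A (10 ng) with 10 μM ATP and specific substrate in 40 mM Tris-HCl pH 7.4, 20 mM MgCl2, 0.5 mg/mL BSA, 50 μM DTT, 1 h at 25 °C. ADP formation read by ADP-Glo luminescence relative to solvent control; IC50 from three data sets.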

human GST-CLK1 = target: T2, human GST-CLK1 (Homo sapiens, UniProt P49759); experiment: GST-CLK1 enzyme inhibition, ADP-Glo kinase assay; details: ATP 10 μM, GST-CLK1 129-end
T2 construct: purified human GST-CLK1 (129-end, SignalChem) enzyme; purchased SignalChem
Summary of the method: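 Human GST-CLK1 (129-end, 3 ng) reacted with substrate and 10 μM ATP for 1 h at 25° C in 40 mM Tris-HCl pH 7.4, 20 mM MgCl2, 0.5 mg/mL BSA, 50 μM DTT. ADP-Glo luminescence was normalised to solvent control; IC50 (nM) from 3 data sets.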

LRRK2 = LRRK2 (Homo sapiens, UniProt Q5S007); experiment: LRRK2 enzyme inhibition, ADP-Glo kinase assay; design: purchased Invitrogen PR8604B; details: ATP 10 μM
Protocol: To evaluate an inhibitory activity of the compound according to the present invention against LRRK2, LRRK2 (G2019S), DYRK1, CLK1, and TTK kinases, experiments were performed as follows.
Each of the Example compounds was reacted with a purified human LRRK2 (Invitrogen #PR8604B) enzyme to evaluate an ability to inhibit an enzyme using a method as described below. A composition of 40 mM Tris-HCl (pH 7.4), 20 mM MgCl2, 0.5 mg/mL BSA, and 50 μM DTT was used as a reaction buffer, and all reactions of test substances were performed in the reaction buffer. Each of the compounds was diluted […] from a 10 mM DMSO stock using a serial dilution method, and enzyme activities were measured at final compound concentrations of 50, 10, 2, 0.4, 0.08, 0.016, 0.0032, 0.00064, 0.000128, 0.0000256, 0.00000512, and 0.000001024 μM. In the test, purified ATP (10 μM) and an enzyme substrate (0.2 μg) were reacted with a human LRRK2 (25 ng) enzyme at 25° C. for 2 hours, and the enzyme activities were determined using an in vitro ADP-Glo™ kinase assay (Promega). An enzyme-activity reaction solution, an ADP-Glo reaction solution, and an enzyme-ability detection solution were reacted at a ratio of 2:2:1 to measure a degree of inhibition of the enzyme activity with luminescence. The degree of inhibition of the enzyme activity according to the treatment concentration of each of the compounds was calculated based on the fluorescence of the enzyme activity of the solvent control which was not treated with the compound. In this case, the concentration of each of the compounds inhibiting 50% of the enzyme activity was determined to be an IC50 (nM) value, and calculated using Prism (Version 5.01; GraphPad) software.

LRRK2 (G2019S) = LRRK2 (G2019S) (Homo sapiens, UniProt Q5S007, G2019S); experiment: LRRK2 G2019S enzyme inhibition, ADP-Glo kinase assay; design: purchased SignalChem L10-12GG; details: ATP 25 μM
Summary of the method: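 Purified human LRRK2 G2019S (16 ng) with 25 μM ATP and 0.2 μg substrate, 2 h at 25° C. in Tris-HCl pH 7.4, MgCl2, BSA, DTT buffer; compounds at 12 final concentrations, 50 μM down to 0.000001024 μM. ADP-Glo luminescence versus solvent control gave IC50.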

Chain of LRRK2 (Q5S007 970-2527 limits assumed): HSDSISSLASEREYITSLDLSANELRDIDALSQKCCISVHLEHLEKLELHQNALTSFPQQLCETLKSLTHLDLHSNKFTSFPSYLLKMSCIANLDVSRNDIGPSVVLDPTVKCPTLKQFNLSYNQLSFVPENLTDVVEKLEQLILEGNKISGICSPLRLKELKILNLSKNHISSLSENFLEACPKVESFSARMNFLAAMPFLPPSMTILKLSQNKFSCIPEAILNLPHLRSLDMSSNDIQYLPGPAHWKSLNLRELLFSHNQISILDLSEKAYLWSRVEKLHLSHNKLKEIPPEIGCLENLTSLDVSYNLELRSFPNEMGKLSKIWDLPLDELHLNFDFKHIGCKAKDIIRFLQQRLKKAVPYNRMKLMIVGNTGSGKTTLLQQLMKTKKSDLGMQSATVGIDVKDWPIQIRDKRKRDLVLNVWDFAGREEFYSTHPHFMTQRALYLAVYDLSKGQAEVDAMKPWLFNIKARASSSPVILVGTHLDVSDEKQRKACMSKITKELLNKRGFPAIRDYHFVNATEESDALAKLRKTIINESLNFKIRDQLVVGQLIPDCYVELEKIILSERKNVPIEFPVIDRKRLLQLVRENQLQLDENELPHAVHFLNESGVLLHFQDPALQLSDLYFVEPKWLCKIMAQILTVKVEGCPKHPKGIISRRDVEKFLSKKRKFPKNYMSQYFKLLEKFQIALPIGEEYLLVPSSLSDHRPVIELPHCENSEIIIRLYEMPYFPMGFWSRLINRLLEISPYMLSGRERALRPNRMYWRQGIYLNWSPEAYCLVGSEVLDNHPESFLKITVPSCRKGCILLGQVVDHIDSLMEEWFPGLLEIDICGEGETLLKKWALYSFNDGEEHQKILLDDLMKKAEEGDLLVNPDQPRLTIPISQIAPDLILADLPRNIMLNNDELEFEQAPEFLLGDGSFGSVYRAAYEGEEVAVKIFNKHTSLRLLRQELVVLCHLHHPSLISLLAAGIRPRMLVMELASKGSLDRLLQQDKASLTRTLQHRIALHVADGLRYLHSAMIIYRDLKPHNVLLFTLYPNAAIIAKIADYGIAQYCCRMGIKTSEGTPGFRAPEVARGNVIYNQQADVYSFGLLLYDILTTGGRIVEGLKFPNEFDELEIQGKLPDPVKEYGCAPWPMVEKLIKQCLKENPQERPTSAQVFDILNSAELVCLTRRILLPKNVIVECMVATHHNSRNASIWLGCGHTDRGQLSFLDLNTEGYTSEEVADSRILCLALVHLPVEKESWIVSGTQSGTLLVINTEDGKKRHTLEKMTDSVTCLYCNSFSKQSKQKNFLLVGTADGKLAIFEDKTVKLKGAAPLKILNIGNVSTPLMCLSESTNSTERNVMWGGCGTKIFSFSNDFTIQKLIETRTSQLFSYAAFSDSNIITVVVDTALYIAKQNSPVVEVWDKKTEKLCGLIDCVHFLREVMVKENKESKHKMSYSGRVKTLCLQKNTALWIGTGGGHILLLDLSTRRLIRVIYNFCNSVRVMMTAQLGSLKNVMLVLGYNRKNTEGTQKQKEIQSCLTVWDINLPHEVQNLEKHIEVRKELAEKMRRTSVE
T2 sequence (P49759 129-484 limits assumed): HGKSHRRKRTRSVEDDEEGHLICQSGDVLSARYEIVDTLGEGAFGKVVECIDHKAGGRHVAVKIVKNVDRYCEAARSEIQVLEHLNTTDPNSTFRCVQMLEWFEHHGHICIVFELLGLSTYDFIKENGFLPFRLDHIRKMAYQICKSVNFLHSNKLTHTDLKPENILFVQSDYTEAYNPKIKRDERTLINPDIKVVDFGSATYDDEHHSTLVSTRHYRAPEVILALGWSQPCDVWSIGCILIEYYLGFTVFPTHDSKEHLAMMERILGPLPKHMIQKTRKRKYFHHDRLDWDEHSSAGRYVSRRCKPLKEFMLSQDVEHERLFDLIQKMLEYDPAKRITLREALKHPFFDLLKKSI
Chain of LRRK2 (G2019S) (Q5S007 970-2527 G2019S limits assumed): as the sequence (Q5S007 970-2527 limits assumed) above, with G1050S counted along it

IC50 (human GST-DYRK1A) [nM]	IC50 (human GST-CLK1) [nM]	IC50 (LRRK2) [nM]	IC50 (LRRK2 (G2019S)) [nM]	SMILES
< 100	< 100	< 100	–	CCNc1nc(Nc2ccc(C(=O)N3C[C@@H]4C[C@H]3CO4)c3c2OCCO3)nc2[nH]cc(C(F)(F)F)c12 [Example 409]
101 to 300	101 to 300	< 100	–	CNc1nc(Nc2ccc(C(=O)N3CCC(N4CCOCC4)CC3)c3c2OCO3)nc2[nH]cc(C(F)(F)F)c12 [Example 215, (7-((4-(methylamino)-5-(trifluoromethyl)-7H-pyrrolo[2,3-d]pyrimidin-2-yl)amino)benzo[d][1,3]dioxol-4-yl)(4-morpholinopiperidin-1-yl)methanone]
301 to 1000	301 to 1000	< 100	–	CC[C@@H](C)Nc1nc(Nc2ccc(S(C)(=O)=O)cc2OC)nc2[nH]cc(C(F)(F)F)c12 [Example 173, (R)-N^4-(sec-butyl)-N^2-(2-methoxy-4-(methyslulfonyl)phenyl)-5-(trifluoromethyl)-7H-pyrrolo[2,3-d]pyrimidine-2,4-diamine]
301 to 1000	301 to 1000	< 100	–	CC(C)CNc1nc(Nc2ccc(C(=O)N3CCOCC3)c3c2OCCO3)nc2[nH]cc(C(F)(F)F)c12 [Example 169, (8-((4-(isobutylamino)-5-(trifluoromethyl)-7H-pyrrolo[2,3-d]pyrimidin-2-yl)amino)-2,3-dihydrobenzo[b][1,4]dioxin-5-yl)(morpholino)methanone]
301 to 1000	< 100	< 100	–	CC(C)Nc1nc(Nc2ccc(C(=O)N3CCC(N4CCOCC4)CC3)c3c2OCCO3)nc2[nH]cc(C#N)c12 [Example 140, 4-(isopropylamino)-2-((8-(4-morpholinopiperidine-1-carbonyl)-2,3-dihydrobenzo[b][1,4]dioxin-5-yl)amino)-7H-pyrrolo[2,3-d]pyrimidine-5-carbonitrile]
301 to 1000	301 to 1000	< 100	–	COc1cc(S(=O)(=O)N2CCC(N3CCOCC3)CC2)ccc1Nc1nc(NCC2CCC2)c2c(C#N)c[nH]c2n1 [Example 94, 4-((cyclobutylmethyl)amino)-2-((2-methoxy-4-((4-morpholinopiperidin-1-yl)sulfonyl)phenyl)amino)-7H-pyrrolo[2,3-d]pyrimidine-5-carbonitrile]
< 100	< 100	< 100	–	COc1cc(P2(=O)CCN(C3CC3)CC2)ccc1Nc1nc(NC2CC2)c2c(C(F)(F)F)c[nH]c2n1 [Example 404, 1-cyclopropyl-4-(4-((4-(cyclo-propylamino) 5-(trifluoromethyl)-7H-pyrrolo[2,3-d]pyrimidin-2-yl)amino)3-methoxyphenyl)-1,4-azaphosphinane 4-oxide]
301 to 1000	301 to 1000	301 to 1000	–	C=CCNc1nc(Nc2ccc(S(=O)(=O)N3CCOCC3)cc2OC)nc2[nH]cc(C(F)(F)F)c12 [Example 474, N^4-allyl-N^2-(2-methoxy-4-(morpholino-sulfonyl)phenyl)-5-(trifluoromethyl)-7H-pyrrolo[2,3-d]pyrimidine-2,4-diamine]
301 to 1000	301 to 1000	< 100	–	O=C(c1ccc(Nc2nc(NCC3CCC3)c3c(C(F)(F)F)c[nH]c3n2)c2c1OCCO2)N1CCN(C2COC2)CC1 [Example 424, (8-((4-((cyclo-butylmethyl)amino)-5-(trifluoromethyl)-7H-pyrrolo[2,3-d]pyrimidin-2-yl)amino)-2,3-dihydrobenzo[b] [1,4]dioxin-5-yl) (4-(oxetan-3-yl)piperazin-1-yl)methanone]
301 to 1000	301 to 1000	< 100	–	COc1cc(S(C)(=O)=O)ccc1Nc1nc(NCC2CCC2)c2c(C#N)c[nH]c2n1 [Example 112, 4-((cyclobutylmethyl)amino)-2-((2-methoxy-4-(methylsulfonyl)phenyl)amino)-7H-pyrrolo[2,3-d]pyrimidine-5-carbonitrile]
301 to 1000	301 to 1000	< 100	–	COCC(C)(C)Nc1nc(Nc2ccc(S(C)(=O)=O)cc2OC)nc2[nH]cc(C#N)c12 [Example 111, 4-((1-methoxy-2-methylpropan-2-yl)amino)-2-((2-methoxy-4-(methylsulfonyl)phenyl)amino)-7H-pyrrolo[2,3-d]pyrimdiine-5-carobnitrile]
101 to 300	101 to 300	< 100	–	CCNc1nc(Nc2ccc(P3(=O)CCN(CC)CC3)cc2OC)nc2[nH]cc(C#N)c12 [Example 260, 2-((4-(1-ethyl-4-oxido-1,4-azaphosphinan-4-yl)-2-methoxyphenyl)amino)-4-(ethylamino)-7H-pyrrolo[2,3-d]pyrimidine-5-carbonitrile]
< 100	< 100	< 100	–	CCNc1nc(Nc2ccc(P3(=O)CCN(C4COC4)CC3)cc2OC)nc2[nH]cc(C(F)(F)F)c12 [Example 399, 4-(4-((4-(ethylamino)-5-(trifluoromethyl)-7H-pyrrolo[2,3-d]pyrimidin-2-yl)amino)-3-methoxyphenyl)-1-(oxetan-3-yl)-1,4-azaphosphinane 4-oxide]
101 to 300	< 100	< 100	–	CC[C@H](C)Nc1nc(Nc2ccc(C(=O)N3CCC(N4CCOCC4)CC3)c3c2OCC3)nc2[nH]cc(C(F)(F)F)c12 [Example 452, (S)-(7-((4-(sec-butylamino)-5-(trifluoromethyl)-7H-pyrrolo[2,3-d]pyrimidin-2-yl)amino)-2,3-dihydrobenzo-furan-4-yl)(4-morpho-linopiperidin-1-yl)methanone]
< 100	< 100	< 100	–	COCCNc1nc(Nc2ccc(C(=O)N3CCC(N4CCOCC4)CC3)c3c2OCCO3)nc2[nH]cc(C#N)c12 [Example 256, 4-((2-methoxyethyl)amino)-2-((8-(4-morpholinopiperidine-1-carbonyl)-2,3-dihydrobenzo[b][1,4]dioxin-5-yl)amino)-7H-pyrrolo[2,3-d]pyrimidine-5-carbonitrile]
< 100	< 100	–	< 100	CS(=O)(=O)CCNc1nc(Nc2ccc(C(=O)N3CCN(C4COC4)CC3)c3c2OCCO3)nc2[nH]cc(C(F)(F)F)c12 [Example 427, (8-((4-((2-(methylsulfonyl)ethyl)amino)-5-(trifluoromethyl)-7H-pyrrolo[2,3-d]pyrimidin-2-yl)amino)-2,3-dihydrobenzo[b] [1,4]dioxin-5-yl) (4-(oxetan-3-yl)piperazin-1-yl)methanone]
301 to 1000	301 to 1000	–	< 100	COCCNc1nc(Nc2ccc(S(C)(=O)=O)cc2OC)nc2[nH]ccc12 [Example 21, N^2-(2-methoxy-4-(methylsulfonyl)phenyl)-N^4-(2-methoxyethyl)-7H-pyrrolo[2,3-d]pyrimidine-2,4-diamine 2,2,2-trifluoroacetate]
301 to 1000	301 to 1000	–	< 100	COc1cc(S(C)(=O)=O)ccc1Nc1nc(NCC2CCC2)c2cc[nH]c2n1 [Example 39, N^4-(cyclobutylmethyl)-N^2-(2-methoxy-4-(methylsulfonyl)phenyl)-7H-pyrrolo[2,3-d]pyrimidine-2,4-diamine 2,2,2-trifluoroacetate]
301 to 1000	301 to 1000	–	101 to 300	CC[C@H](C)Nc1nc(Nc2ccc(S(=O)(=O)N3CCOCC3)cc2OC)nc2[nH]ccc12 [Example 60, (S)-N^4-(sec-butyl)-N^2-(2-methoxy-4-(morpholinosulfonyl)phenyl)-7H-pyrrolo[2,3-d]pyrimidine-2,4-diamine]
